Assay results from ChEMBL document CHEMBL4138123, “Design, synthesis and biological evaluation of novel pyrazolochalcones as potential modulators of PI3K/Akt/mTOR pathway and inducers of apoptosis in breast cancer cells” (Eur J Med Chem, 2017).

Key:
[1] = test system: SNB-19; experiment: Cytotoxicity against human SNB19 cells assessed as growth inhibition after 48 hrs by sulforhodamine B assay; format: functional; settings: SNB-19, 48 h
[2] = test system: U-251; experiment: Cytotoxicity against human U251 cells assessed as growth inhibition after 48 hrs by sulforhodamine B assay; format: functional; settings: U-251, 48 h
[3] = test system: A498; experiment: Cytotoxicity against human A498 cells assessed as growth inhibition after 48 hrs by sulforhodamine B assay; format: functional; settings: A498, 48 h
[4] = test system: UO-31; experiment: Cytotoxicity against human UO31 cells assessed as growth inhibition after 48 hrs by sulforhodamine B assay; format: functional; settings: UO-31, 48 h
[5] = test system: MCF7; experiment: Cytotoxicity against human MCF7 cells assessed as growth inhibition after 48 hrs by MTT assay; format: functional, cell-based; settings: MCF7, 48 h
[6] = test system: NCI/ADR-RES; experiment: Cytotoxicity against human NCI/ADR-RES cells assessed as cell growth at 0.01 uM after 48 hrs by sulforhodamine B assay relative to control; format: functional; settings: read-out: Activity
[7] = test system: KM12; experiment: Cytotoxicity against human KM12 cells assessed as cell growth at 0.01 uM after 48 hrs by sulforhodamine B assay relative to control; format: functional; settings: KM12, 48 h, read-out: Activity
[8] = test system: NCI-H522; experiment: Cytotoxicity against human NCI-H522 cells assessed as cell growth at 0.01 uM after 48 hrs by sulforhodamine B assay relative to control; format: functional; settings: NCI-H522, 48 h, read-out: Activity
[9] = test system: NCI-H460; experiment: Cytotoxicity against human NCI-H460 cells assessed as cell growth at 0.01 uM after 48 hrs by sulforhodamine B assay relative to control; format: functional; settings: NCI-H460, 48 h, read-out: Activity
[10] = test system: NCI-H23; experiment: Cytotoxicity against human NCI-H23 cells assessed as cell growth at 0.01 uM after 48 hrs by sulforhodamine B assay relative to control; format: functional; settings: NCI-H23, 48 h, read-out: Activity
[11] = test system: NCI-H226; experiment: Cytotoxicity against human NCI-H226 cells assessed as cell growth at 0.01 uM after 48 hrs by sulforhodamine B assay relative to control; format: functional; settings: NCI-H226, 48 h, read-out: Activity
[12] = test system: HOP-62; experiment: Cytotoxicity against human HOP62 cells assessed as cell growth at 0.01 uM after 48 hrs by sulforhodamine B assay relative to control; format: functional; settings: HOP-62, 48 h, read-out: Activity
[13] = test system: A549; experiment: Cytotoxicity against human A549/ATCC cells assessed as cell growth at 0.01 uM after 48 hrs by sulforhodamine B assay relative to control; format: functional; settings: A549, 48 h, read-out: Activity
[14] = test system: SR; experiment: Cytotoxicity against human SR cells assessed as cell growth at 0.01 uM after 48 hrs by sulforhodamine B assay relative to control; format: functional; settings: read-out: Activity
[15] = test system: TK-10; experiment: Cytotoxicity against human TK10 cells assessed as cell growth at 0.01 uM after 48 hrs by sulforhodamine B assay relative to control; format: functional; settings: TK-10, 48 h, read-out: Activity
[16] = test system: Hs-578T; experiment: Cytotoxicity against human Hs 578T cells assessed as cell growth at 0.01 uM after 48 hrs by sulforhodamine B assay relative to control; format: functional; settings: read-out: Activity
[17] = test system: CCRF-CEM; experiment: Cytotoxicity against human CCRF-CEM cells assessed as cell growth at 0.1 uM after 48 hrs by sulforhodamine B assay relative to control; format: functional; settings: read-out: Activity
[18] = test system: NCI-H23; experiment: Cytotoxicity against human NCI-H23 cells assessed as cell growth at 0.1 uM after 48 hrs by sulforhodamine B assay relative to control; format: functional; settings: NCI-H23, 48 h, read-out: Activity
[19] = test system: KM12; experiment: Cytotoxicity against human KM12 cells assessed as cell growth at 0.1 uM after 48 hrs by sulforhodamine B assay relative to control; format: functional; settings: KM12, 48 h, read-out: Activity
[20] = test system: SF-268; experiment: Cytotoxicity against human SF268 cells assessed as cell growth at 0.1 uM after 48 hrs by sulforhodamine B assay relative to control; format: functional; settings: SF-268, 48 h, read-out: Activity
[21] = test system: Malme-3M; experiment: Cytotoxicity against human MALME-3M cells assessed as cell growth at 0.1 uM after 48 hrs by sulforhodamine B assay relative to control; format: functional; settings: read-out: Activity
[22] = test system: MDA-MB-435; experiment: Cytotoxicity against human MDA-MB-435 cells assessed as cell growth at 0.1 uM after 48 hrs by sulforhodamine B assay relative to control; format: functional; settings: MDA-MB-435, 48 h, read-out: Activity
[23] = test system: UACC-62; experiment: Cytotoxicity against human UACC62 cells assessed as cell growth at 0.1 uM after 48 hrs by sulforhodamine B assay relative to control; format: functional; settings: UACC-62, 48 h, read-out: Activity
[24] = test system: NCI/ADR-RES; experiment: Cytotoxicity against human NCI/ADR-RES cells assessed as cell growth at 0.1 uM after 48 hrs by sulforhodamine B assay relative to control; format: functional; settings: read-out: Activity
[25] = test system: MDA-MB-231; experiment: Cytotoxicity against human MDA-MB-231 cells assessed as cell growth at 0.1 uM after 48 hrs by sulforhodamine B assay relative to control; format: functional; settings: MDA-MB-231, 48 h, read-out: Activity
[26] = test system: K562; experiment: Cytotoxicity against human K562 cells assessed as cell growth at 1 uM after 48 hrs by sulforhodamine B assay relative to control; format: functional; settings: K562, 48 h, read-out: Activity
[27] = test system: A549; experiment: Cytotoxicity against human A549/ATCC cells assessed as cell growth at 1 uM after 48 hrs by sulforhodamine B assay relative to control; format: functional; settings: A549, 48 h, read-out: Activity
[28] = test system: UACC-62; experiment: Cytotoxicity against human UACC62 cells assessed as cell growth at 1 uM after 48 hrs by sulforhodamine B assay relative to control; format: functional; settings: UACC-62, 48 h, read-out: Activity
[29] = test system: PC-3; experiment: Cytotoxicity against human PC3 cells assessed as cell growth at 1 uM after 48 hrs by sulforhodamine B assay relative to control; format: functional; settings: PC-3, 48 h, read-out: Activity
[30] = test system: DU-145; experiment: Cytotoxicity against human DU145 cells assessed as cell growth at 1 uM after 48 hrs by sulforhodamine B assay relative to control; format: functional; settings: DU-145, 48 h, read-out: Activity
[31] = test system: CCRF-CEM; experiment: Cytotoxicity against human CCRF-CEM cells assessed as cell growth at 10 uM after 48 hrs by sulforhodamine B assay relative to control; format: functional; settings: read-out: Activity
[32] = test system: SR; experiment: Cytotoxicity against human SR cells assessed as cell growth at 10 uM after 48 hrs by sulforhodamine B assay relative to control; format: functional; settings: read-out: Activity
[33] = test system: SF-268; experiment: Cytotoxicity against human SF268 cells assessed as cell growth at 10 uM after 48 hrs by sulforhodamine B assay relative to control; format: functional; settings: SF-268, 48 h, read-out: Activity
[34] = test system: MDA-MB-231; experiment: Cytotoxicity against human MDA-MB-231 cells assessed as cell growth at 10 uM after 48 hrs by sulforhodamine B assay relative to control; format: functional; settings: MDA-MB-231, 48 h, read-out: Activity
[35] = test system: HOP-62; experiment: Cytotoxicity against human HOP62 cells assessed as cell growth at 100 uM after 48 hrs by sulforhodamine B assay relative to control; format: functional; settings: HOP-62, 48 h, read-out: Activity
[36] = test system: KM12; experiment: Cytotoxicity against human KM12 cells assessed as cell growth at 100 uM after 48 hrs by sulforhodamine B assay relative to control; format: functional; settings: KM12, 48 h, read-out: Activity
[37] = test system: A498; experiment: Cytotoxicity against human A498 cells assessed as cell growth at 100 uM after 48 hrs by sulforhodamine B assay relative to control; format: functional; settings: A498, 48 h, read-out: Activity

Compound: COc1cc(C(=O)/C=C/c2cc(-c3ccc4c(c3)OCO4)n[nH]2)cc(OC)c1OC
- GI50 [1]: 2.34 µM
- TGI [1]: 11.7 µM
- CC50 ([1]; read-out: LC50 (the source's name)): 35.6 µM
- GI50 [2]: 1.21 µM
- LC50 [2]: 5.13 µM
- TGI [2]: 2.49 µM
- GI50 [3]: 1.75 µM
- LC50 [3]: 15.3 µM
- TGI [3]: 4.65 µM
- GI50 [4]: 1.34 µM
- LC50 [4]: 5.33 µM
- TGI [4]: 2.67 µM
- IC50 [5]: 0.85 µM
- growth at 0.01 µM [6]: 95%
- growth at 0.01 µM [7]: 97%
- growth at 0.01 µM [8]: 97%
- growth at 0.01 µM [9]: 99%
- growth at 0.01 µM [10]: 95%
- growth at 0.01 µM [11]: 97%
- growth at 0.01 µM [12]: 100%
- growth at 0.01 µM [13]: 100%
- growth at 0.01 µM [14]: 97%
- growth at 0.01 µM [15]: 93%
- growth at 0.01 µM [16]: 92%
- growth at 0.1 µM [17]: 98%
- growth at 0.1 µM [18]: 93%
- growth at 0.1 µM [19]: 93%
- growth at 0.1 µM [20]: 96%
- growth at 0.1 µM [21]: 83%
- growth at 0.1 µM [22]: 95%
- growth at 0.1 µM [23]: 97%
- growth at 0.1 µM [24]: 98%
- growth at 0.1 µM [25]: 98%
- growth at 1 µM [26]: 74%
- growth at 1 µM [27]: 85%
- growth at 1 µM [28]: 89%
- growth at 1 µM [29]: 71%
- growth at 1 µM [30]: 97%
- growth at 10 µM [31]: -26%
- growth at 10 µM [32]: -19%
- growth at 10 µM [33]: -12%
- growth at 10 µM [34]: -22%
- growth at 100 µM [35]: -91%
- growth at 100 µM [36]: -79%
- growth at 100 µM [37]: -98%

Compound: COc1ccc(C(=O)/C=C/c2cc(-c3cc(OC)c(OC)c(OC)c3)n[nH]2)cc1
- TGI [1]: 3.03 µM
- TGI [2]: 2.83 µM
- TGI [3]: 3.94 µM
- LC50 [4]: 5.59 µM
- TGI [4]: 2.84 µM
- IC50 [5]: 0.81 µM
- growth at 0.01 µM [6]: 102%
- growth at 0.01 µM [7]: 99%
- growth at 0.01 µM [8]: 83%
- growth at 0.01 µM [9]: 103%
- growth at 0.01 µM [10]: 93%
- growth at 0.01 µM [11]: 99%
- growth at 0.01 µM [12]: 99%
- growth at 0.01 µM [13]: 98%
- growth at 0.01 µM [14]: 97%
- growth at 0.01 µM [15]: 89%
- growth at 0.01 µM [16]: 99%
- growth at 0.1 µM [17]: 98%
- growth at 0.1 µM [18]: 92%
- growth at 0.1 µM [19]: 94%
- growth at 0.1 µM [20]: 91%
- growth at 0.1 µM [21]: 91%
- growth at 0.1 µM [22]: 95%
- growth at 0.1 µM [23]: 100%
- growth at 0.1 µM [24]: 97%
- growth at 0.1 µM [25]: 94%
- growth at 1 µM [26]: 89%
- growth at 1 µM [27]: 86%
- growth at 1 µM [28]: 95%
- growth at 1 µM [29]: 76%
- growth at 1 µM [30]: 76%
- growth at 10 µM [31]: -19%
- growth at 10 µM [32]: 3%
- growth at 10 µM [33]: -35%
- growth at 10 µM [34]: -33%
- growth at 100 µM [35]: -79%
- growth at 100 µM [36]: -74%
- growth at 100 µM [37]: -34%
